Assay results: patent US20200011856A1, “Method for Determining the Effectiveness of Treatment for the Prevention of Heartworm Disease” (priority 2017, published 2020)
“And” between values parts separate entries of the source, which are not always exact repeats. Equal values may be shown once.

Key:
Dirofilaria immitis = assay: D. immitis L3 infection of NSG mice (FR3 Missouri strain or strain not stated), treatment, recovery and count of worms at necropsy; assay type: in vivo; conditions: for Mean % Rec / % Rec, Mean: group mean
[1] = test system: Dirofilaria immitis (Merial worms, UC strain); assay: D. immitis L3 infection of NSG mice with Merial worms / UC strain, treatment, recovery and count of worms; assay type: in vivo; conditions: for % Rec, Mean / Mean % Rec: group mean; for Mean Survival / Survival, Mean: in vivo
[2] = Table 9, NSG mice, 50 Di L3, 1 mg/kg on Days 1, 15, and 30, recovery Days 41 to 43
[3] = Table 9, individual mouse, NSG mice, 50 Di L3, 1 mg/kg on Days 1, 15, and 30, recovery Days 41 to 43
[4] = Table 11, NSG mice, 50 Di L3, 1 mg/kg on Days 1, 15, and 30, recovery Days 41 to 42
[5] = Table 11, NSG mice, 50 Di L3, 5 mg/kg on Days 1, 15, and 30, recovery Days 41 to 42
[6] = NSG mice, 50 Di L3 Merial worms, 1 mg/kg on Days 1, 15, and 30, recovery Days 41 to 43
[7] = NSG mice, 50 Di L3 UC strain, High Dose 5 mg/kg on Days 1, 15, and 30, recovery Days 41 and 42
[8] = NSG mice, 50 Di L3 UC strain, Normal Dose 1 mg/kg on Days 1, 15, and 30, recovery Days 41 and 42

In the case of COC(=O)Nc1nc2ccc(OS(=O)(=O)c3ccc(F)cc3)cc2[nH]1 [compound 8914, luxabendazole], the “% Red” value (Dirofilaria immitis; [2]) is reported as 0%, the “Mean % Rec” value (Dirofilaria immitis; [2]) is reported as 33% and the “% Rec” value (Dirofilaria immitis; [3]) is reported as 24% and 32% and 28% and 48%. The “Mean Survival” value (Dirofilaria immitis; in vivo) was 17 and the Survival (Dirofilaria immitis; in vivo) was 12 and 16 and 14 and 24.
In the case of C[C@H]1OC(=O)[C@H](CC(C)(C)C)N(C)C(=O)[C@@H](Cc2ccc(C3CCOCC3)cc2)OC(=O)[C@H](CC(C)(C)F)N(C)C(=O)[C@@H](C)OC(=O)[C@H](CC(C)(C)C)N(C)C(=O)[C@@H](Cc2ccc(C3CCOCC3)cc2)OC(=O)[C@H](CC(C)(C)F)N(C)C1=O [compound 4838], the “% Red” value (Dirofilaria immitis; 4838 1 mg/kg days 1, 15, 30, 50 Di L3 (FR3 worms) per NSG mouse, Table 17, vs Control) is reported as “% Red: 50%”, the “% Rec, Mean” value (Dirofilaria immitis; 4838 1 mg/kg days 1, 15, 30, 50 Di L3 (FR3 worms) per NSG mouse, recovery Days 41 and 42, Table 17) is reported as 14% and the “% Rec” value (Dirofilaria immitis; 4838 1 mg/kg days 1, 15, 30, 50 Di L3 (FR3 worms) per NSG mouse, recovery Days 41 and 42, Table 17, individual mice, 1 mg/kg) is reported as 10% (2×) and 20% and 16% (2×) and 12% (2×). The “% Red” value (Dirofilaria immitis; 4838 2.5 mg/kg days 1, 15, 30, 50 Di L3 (FR3 worms) per NSG mouse, Table 17, vs Control) was “% Red: 76%”, the “% Rec, Mean” value (Dirofilaria immitis; 4838 2.5 mg/kg days 1, 15, 30, 50 Di L3 (FR3 worms) per NSG mouse, recovery Days 41 and 42, Table 17) was 6% and the “% Rec” value (Dirofilaria immitis; 4838 2.5 mg/kg days 1, 15, 30, 50 Di L3 (FR3 worms) per NSG mouse, recovery Days 41 and 42, Table 17, individual mice, 2.5 mg/kg) was 2% and 12% and 4% (3×) and 10% and 8%. For the same molecule, the “% Red” value (Dirofilaria immitis; 4838 5 mg/kg days 1, 15, 30, 50 Di L3 (FR3 worms) per NSG mouse, Table 17, vs Control) was “% Red: 93%”, the “% Rec, Mean” value (Dirofilaria immitis; 4838 5 mg/kg days 1, 15, 30, 50 Di L3 (FR3 worms) per NSG mouse, recovery Days 41 and 42, Table 17) was 2% and the “% Rec” value (Dirofilaria immitis; 4838 5 mg/kg days 1, 15, 30, 50 Di L3 (FR3 worms) per NSG mouse, recovery Days 41 and 42, Table 17, individual mice, 5 mg/kg) was 0% (4×) and 4% (3×). The “% Red” value (Dirofilaria immitis; 4838 10 mg/kg Days 1, 15, 30, 50 Di L3 per NSG mouse, Table 14, vs Control) was 100%, the “% Rec, Mean” value (Dirofilaria immitis; 4838 10 mg/kg Days 1, 15, 30, 50 Di L3 per NSG mouse, recovery Days 41 to 42, Table 14) was 0% and the “% Rec” value (Dirofilaria immitis; 4838 10 mg/kg Days 1, 15, 30, 50 Di L3 per NSG mouse, recovery Days 41 to 42, Table 14, individual mice) was 0%. The “% Red” value (Dirofilaria immitis; 4838 10 mg/kg days 1, 15, 30, 50 Di L3 (FR3 worms) per NSG mouse, Table 17, vs Control) was “% Red: 99%”, the “% Rec, Mean” value (Dirofilaria immitis; 4838 10 mg/kg days 1, 15, 30, 50 Di L3 (FR3 worms) per NSG mouse, recovery Days 41 and 42, Table 17) was 0.29% and the “% Rec” value (Dirofilaria immitis; 4838 10 mg/kg days 1, 15, 30, 50 Di L3 (FR3 worms) per NSG mouse, recovery Days 41 and 42, Table 17, individual mice, 10 mg/kg) was 0% (6×) and 2%. For the same molecule, the “% Red” value (Dirofilaria immitis; 4838 .5 mg/kg days 1, 15, 30, 50 Di L3 (FR3 worms) per NSG mouse, Table 17, vs Control) was “% Red: 36%”, the “% Rec, Mean” value (Dirofilaria immitis; 4838 .5 mg/kg days 1, 15, 30, 50 Di L3 (FR3 worms) per NSG mouse, recovery Days 41 and 42, Table 17) was 18% and the “% Rec” value (Dirofilaria immitis; 4838 .5 mg/kg days 1, 15, 30, 50 Di L3 (FR3 worms) per NSG mouse, recovery Days 41 and 42, Table 17, individual mice) was 22% and 8% (2×) and 34% and 16% and 12% and 28%. For the same molecule, the “% Red” value (Dirofilaria immitis; [2]) was 24%, the “Mean % Rec” value (Dirofilaria immitis; [2]) was 25% and the “% Rec” value (Dirofilaria immitis; [3]) was 26% and 30% (2×) and 12% and 14% and 32%. For the same molecule, the “% Red” value (Dirofilaria immitis; [4]) was 21%, the “% Red” value (Dirofilaria immitis; [5]) was 92% and the “Mean % Rec” value (Dirofilaria immitis; [4]) was 19%. The “Mean % Rec” value (Dirofilaria immitis; [5]) was 2%, the “% Rec” value (Dirofilaria immitis; Table 11, individual mouse, NSG mice, 50 Di L3, 1 mg/kg on Days 1, 15, and 30, recovery Days 41 to 42) was 20% and 12% and 8% and 30% and 28% and 18% and the “% Rec” value (Dirofilaria immitis; Table 11, individual mouse, NSG mice, 50 Di L3, 5 mg/kg on Days 1, 15, and 30, recovery Days 41 to 42) was 4% (2×) and 2% (3×) and 0%. The “Survival, Mean” value (Dirofilaria immitis; in vivo) was 9, the Survival (Dirofilaria immitis; in vivo, 1 mg/kg) was 5 and 10 and 8 and 6 and the “Survival, Mean” value (Dirofilaria immitis; in vivo, 1 mg/kg) was 7. For the same molecule, the “Survival, Mean” value (Dirofilaria immitis; in vivo, 2.5 mg/kg) was 3, the “Survival, Mean” value (Dirofilaria immitis; in vivo, 5 mg/kg) was 1 and the “Survival, Mean” value (Dirofilaria immitis; in vivo, 10 mg/kg) was 0. For the same molecule, the “% Rec, Mean” value ([1]; 4838 1 mg/kg Days 1, 15, 30, 50 Di L3 (UC Strain) per NSG mouse, recovery Days 41 to 43) was 9%, the “% Rec” value ([1]; 4838 1 mg/kg Days 1, 15, 30, 50 Di L3 (UC Strain) per NSG mouse, recovery Days 41 to 43, individual mice, 1 mg/kg) was 10% and 14% and 8% and 20% and 6% (2×) and 2% and the “% Red” value ([1]; 4838 1 mg/kg Days 1, 15, 30, 50 Di L3 (UC Strain) per NSG mouse, vs Control) was 75%. For the same molecule, the “% Rec, Mean” value ([1]; 4838 5 mg/kg Days 1, 15, 30, 50 Di L3 (UC Strain) per NSG mouse, recovery Days 41 to 43) was 2%, the “% Rec” value ([1]; 4838 5 mg/kg Days 1, 15, 30, 50 Di L3 (UC Strain) per NSG mouse, recovery Days 41 to 43, individual mice, 5 mg/kg) was 2% (4×) and 0% and 4% (2×) and the “% Red” value ([1]; 4838 5 mg/kg Days 1, 15, 30, 50 Di L3 (UC Strain) per NSG mouse, vs Control) was 94%. The “% Red” value [1, 6] was 38%, the “% Red” value [1, 7] was 92% and the “% Red” value [1, 8] was 58%. For the same molecule, the “Mean % Rec” value [1, 6] was 21%, the “Mean % Rec” value [1, 7] was 3% and the “Mean % Rec” value [1, 8] was 15%. The “Mean Survival” value ([1]; 1 mg/kg) was 10 and 8, the “Survival, Mean” value ([1]; 1 mg/kg) was 5 and the “Mean Survival” value ([1]; 5 mg/kg) was 1. The “Survival, Mean” value ([1]; 5 mg/kg) was 1, the “% Rec” value ([1]; individual mouse, NSG mice, 50 Di L3 Merial worms, 1 mg/kg on Days 1, 15, and 30, recovery Days 41 to 43, 1 mg/kg) was 20% (3×) and 12% and 24% and 16% (2×) and 36% and the “% Rec” value ([1]; individual mouse, NSG mice, 50 Di L3 UC strain, High Dose 5 mg/kg on Days 1, 15, and 30, recovery Days 41 and 42, 5 mg/kg) was 4% (4×) and 0% and 2% (2×). The “% Rec” value ([1]; individual mouse, NSG mice, 50 Di L3 UC strain, Normal Dose 1 mg/kg on Days 1, 15, and 30, recovery Days 41 and 42, 1 mg/kg) was 14% (3×) and 16% (3×) and 18%.
